From PMC7587962, “Evaluation of Cytotoxicity and α-Glucosidase Inhibitory Activity of Amide and Polyamino-Derivatives of Lupane Triterpenoids” (Molecules, 2020)

Experiments:
[1] = test system: Rat Liver ER Neutral α-Glucosidase; assay: Endoplasmic reticulum α-glucosidase activity assay; type: biochemical
Excerpt: Betulinic acid inhibits yeast α-glucosidase activity and interferes with N-linked glycan modifications to cell-surface intercellular adhesion molecule-1 (ICAM-1) in human lung carcinoma A549 cells in a similar manner to castanospermine, an inhibitor of endoplasmic reticulum α-glucosidases I and II [66]. […] Taken together, these considerations prompted us to evaluate a series of lupanes with amide function or polyamine chain 11, 12, 16, 18, and 22–26 for α-glucosidase inhibition. Initially, they were screened against α-glucosidase of S. cerevisiae as an accessible and high-throughput model. Confirmatory experiments were performed on isolated rough endoplasmic reticulum vesicles from rat liver, which contain neutral α-glucosidases I and II in a membrane-bound form.
Endoplasmic reticulum was isolated from hepatocytes of decapitated male Sprague-Dawley rats, which were starved overnight and sacrificed the next morning. All experiments were approved by Volgograd regional ethic committee. The whole procedure was performed at 4 °C. In brief, a fresh tissue sample from an animal was washed twice with 10 mL of PBS to remove residual blood. The tissue was placed on a paper towel in order to absorb excess liquid and blood clots, if present. It was cut further into small pieces (1.5–2 cm) and washed once more. […] Homogenate was centrifuged at 1000× g for 10 min at 4 °C. After removal of the floating lipid layer by aspiration, supernatant was separated and centrifuged at 12,000× g for 15 min. at 4 °C. The supernatant fraction, which is the post mitochondrial fraction (PMF), was used for isolation of rough endoplasmic reticulum (RER) enriched microsomes by precipitation with 8 mM CaCl2 added dropwise. The final concentration of CaCl2 was 7 mM. Resulting sample was centrifuged at 8000 g for 10 min. at 4 °C. The supernatant was discarded, and the pellet was suspended in isotonic extraction buffer (0.3 mL of buffer for each g of original tissue). The suspension was homogenized completely to afford RER enriched microsomes. In a 96-well flat transparent plate 25 µL of the isolated RER microsomes were incubated with 50 µL of test compounds in 67 mM PBS (pH 6.8) at 37 °C for 10 min. Then, p-nitrophenyl-α-D-glucopyranoside (Sigma #N1377, St. Louis, MO, USA) was added to 1 mM final concentration and increase in absorbance was recorded for 42 min at 405 nm wavelength with Infinite M200 PRO microplate reader (Tecan, Austria). Concentration of RER microsomes was adjusted to achieve an increase in optical density of ~0.2 in control samples after 30 min. of incubation. Test compounds were prepared as described above for the yeast α-glucosidase assay.

UACC-257 = test system: UACC-257; design: method as in PMID 25405285; conditions: standard drugs used by NCI as control; cited from earlier work
ACHN = test system: ACHN; design: method as in PMID 25405285; conditions: standard drugs used by NCI as control; cited from earlier work
HCC-2998 = test system: HCC-2998; design: method as in PMID 25405285; conditions: standard drugs used by NCI as control; cited from earlier work
SF-268 = test system: SF-268; design: method as in PMID 25405285; conditions: standard drugs used by NCI as control; cited from earlier work
HT29 = test system: HT29; design: method as in PMID 25405285; conditions: standard drugs used by NCI as control; cited from earlier work
HS 578T = test system: HS 578T; design: method as in PMID 25405285; conditions: standard drugs used by NCI as control; cited from earlier work
OVCAR-8 = test system: OVCAR-8; design: method as in PMID 25405285; conditions: standard drugs used by NCI as control; cited from earlier work
SNB-19 = test system: SNB-19; design: method as in PMID 25405285; conditions: standard drugs used by NCI as control; cited from earlier work
SR = test system: SR; design: method as in PMID 25405285; conditions: standard drugs used by NCI as control; cited from earlier work
SNB-75 = test system: SNB-75; design: method as in PMID 25405285; conditions: standard drugs used by NCI as control; cited from earlier work
M14 = test system: M14; design: method as in PMID 25405285; conditions: standard drugs used by NCI as control; cited from earlier work
MALME-3M = test system: MALME-3M; design: method as in PMID 25405285; conditions: standard drugs used by NCI as control; cited from earlier work
SF-295 = test system: SF-295; design: method as in PMID 25405285; conditions: standard drugs used by NCI as control; cited from earlier work
OVCAR-3 = test system: OVCAR-3; design: method as in PMID 25405285; conditions: standard drugs used by NCI as control; cited from earlier work
A498 = test system: A498; design: method as in PMID 25405285; conditions: standard drugs used by NCI as control; cited from earlier work
COLO 205 = test system: COLO 205; design: method as in PMID 25405285; conditions: standard drugs used by NCI as control; cited from earlier work
MDA-MB-468 = test system: MDA-MB-468; design: method as in PMID 25405285; conditions: standard drugs used by NCI as control; cited from earlier work
OVCAR-5 = test system: OVCAR-5; design: method as in PMID 25405285; conditions: standard drugs used by NCI as control; cited from earlier work
NCI-H23 = test system: NCI-H23; design: method as in PMID 25405285; conditions: standard drugs used by NCI as control; cited from earlier work
PC-3 = test system: PC-3; design: method as in PMID 25405285; conditions: standard drugs used by NCI as control; cited from earlier work
NCI-H522 = test system: NCI-H522; design: method as in PMID 25405285; conditions: standard drugs used by NCI as control; cited from earlier work
HOP-62 = test system: HOP-62; design: method as in PMID 25405285; conditions: standard drugs used by NCI as control; cited from earlier work
UACC-62 = test system: UACC-62; design: method as in PMID 25405285; conditions: standard drugs used by NCI as control; cited from earlier work
CAKI-1 = test system: CAKI-1; design: method as in PMID 25405285; conditions: standard drugs used by NCI as control; cited from earlier work
SK-MEL-28 = test system: SK-MEL-28; design: method as in PMID 25405285; conditions: standard drugs used by NCI as control; cited from earlier work
MDA-MB-435 = test system: MDA-MB-435; design: method as in PMID 25405285; conditions: standard drugs used by NCI as control; cited from earlier work
SF-539 = test system: SF-539; design: method as in PMID 25405285; conditions: standard drugs used by NCI as control; cited from earlier work
SK-MEL-5 = test system: SK-MEL-5; design: method as in PMID 25405285; conditions: standard drugs used by NCI as control; cited from earlier work

Q: Which “Rat Liver ER Neutral α-Glucosidase Inhibition, m ± SD” value ([1]; 10 μM) does the source give for `C=C(C)[C@@H]1CC[C@]2(C(=O)NCCNCCNCCN)CC[C@]3(C)[C@H](CC[C@@H]4[C@@]5(C)CCC(=O)C(C)(C)[C@@H]5CC[C@]43C)[C@@H]12` [Compound 11] here?
A: 15.03 ± 8.98%

Q: And the “Rat Liver ER Neutral α-Glucosidase Inhibition, m ± SD” value ([1]; 100 μM)?
A: 43.60 ± 7.98 %

Q: Which GI50 (UACC-257) does the source give for `COc1cccc2c1C(=O)c1c(O)c3c(c(O)c1C2=O)C[C@@](O)(C(=O)CO)C[C@@H]3O[C@H]1C[C@H](N)[C@H](O)[C@H](C)O1` [DRB, doxorubicin] here?
A: 140 nM

Q: What about the GI50 (ACHN) of the same compound?
A: 80 nM

Q: What about the GI50 (HCC-2998) of the same compound?
A: 260 nM

Q: And the GI50 (SF-268)?
A: 100 nM

Q: What about the GI50 (HT29) of the same compound?
A: 120 nM

Q: And the GI50 (HS 578T)?
A: 330 nM

Q: And the GI50 (OVCAR-8)?
A: 100 nM

Q: What about the GI50 (SNB-19) of the same compound?
A: 40 nM

Q: And the GI50 (SR)?
A: 30 nM

Q: What about the GI50 (SNB-75) of the same compound?
A: 70 nM

Q: And the GI50 (M14)?
A: 180 nM

Q: What about the GI50 (MALME-3M) of the same compound?
A: 120 nM

Q: What about the GI50 (SF-295) of the same compound?
A: 100 nM

Q: And the GI50 (OVCAR-3)?
A: 390 nM

Q: What about the GI50 (A498) of the same compound?
A: 100 nM

Q: And the GI50 (COLO 205)?
A: 180 nM

Q: And the GI50 (MDA-MB-468)?
A: 50 nM

Q: What about the GI50 (OVCAR-5) of the same compound?
A: 410 nM

Q: What about the GI50 (NCI-H23) of the same compound?
A: 150 nM

Q: And the GI50 (PC-3)?
A: 320 nM

Q: And the GI50 (NCI-H522)?
A: 30 nM

Q: And the GI50 (HOP-62)?
A: 70 nM

Q: And the GI50 (UACC-62)?
A: 120 nM

Q: And the GI50 (CAKI-1)?
A: 950 nM

Q: And the GI50 (SK-MEL-28)?
A: 210 nM

Q: What about the GI50 (MDA-MB-435) of the same compound?
A: 250 nM

Q: What about the GI50 (SF-539) of the same compound?
A: 120 nM

Q: And the GI50 (SK-MEL-5)?
A: 80 nM
